Values of other authors, collected in patent US20030108495A1, “Cosmetic compositions containing 2,2-dihydroxymethy1-1,3-dioxolanes” (priority 2001, published 2003).

Tested on: moisturized human skin
Conditions: cosmetic composition applied to moisturized human skin

## O=C(CO)CO [DHA, 1,3-dihydroxyacetone]
  time after initial application until tan appearance (brown-colored melanoidins): approximately five
